Laboratory results: patent US8921358B2, “Apoptosis signal-regulating kinase 1 inhibitors” (Takeda Pharmaceutical Company Limited, priority 2008, dated 2014)

Biological target: T1, human ASK1 (Homo sapiens, UniProt Q99683)
T1 construct: a 2.2 kb DNA fragment containing an ASK1 gene was recovered from the gel; made in house; host or cells: Sf-21 insect cells, recombinant baculovirus (pFASTBAC1, Bac-to-Bac)
T1 sequence (Q99683 649-1374 limits assumed): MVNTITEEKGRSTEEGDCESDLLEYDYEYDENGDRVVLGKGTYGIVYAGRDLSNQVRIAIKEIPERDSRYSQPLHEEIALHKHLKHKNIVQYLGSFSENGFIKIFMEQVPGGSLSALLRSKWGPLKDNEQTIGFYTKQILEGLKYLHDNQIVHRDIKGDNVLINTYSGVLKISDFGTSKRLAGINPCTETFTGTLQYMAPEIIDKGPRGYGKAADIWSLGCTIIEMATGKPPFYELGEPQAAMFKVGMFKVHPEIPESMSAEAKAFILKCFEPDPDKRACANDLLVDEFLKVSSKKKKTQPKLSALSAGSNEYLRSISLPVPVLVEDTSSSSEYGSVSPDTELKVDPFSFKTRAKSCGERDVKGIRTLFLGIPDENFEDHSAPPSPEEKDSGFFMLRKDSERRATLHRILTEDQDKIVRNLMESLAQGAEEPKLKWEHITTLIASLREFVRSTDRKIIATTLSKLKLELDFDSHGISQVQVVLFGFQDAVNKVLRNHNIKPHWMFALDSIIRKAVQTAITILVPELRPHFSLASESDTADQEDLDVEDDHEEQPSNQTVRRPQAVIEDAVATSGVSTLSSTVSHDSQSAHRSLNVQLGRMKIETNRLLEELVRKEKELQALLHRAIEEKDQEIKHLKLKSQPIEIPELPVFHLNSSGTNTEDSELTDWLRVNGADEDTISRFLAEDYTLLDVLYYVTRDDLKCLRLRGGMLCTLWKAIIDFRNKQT
Experiment: Scintillation assay measuring inhibition of ASK1 phosphorylation of myelin basic protein
Assay type: biochemical
Conditions: active ASK1 protein 30 ng, myelin basic protein 1 μg, [γ-32P]ATP, room temperature 30 min; values given as ranges; read-out: Enzyme Activity IC50
Procedure: Cloning of cDNA encoding human ASK1 was conducted by PCR using primers, 5′-[…] AGAGAAGGGGA-3′ (SEQ ID NO: 1) and 5′-[…]-3′ (SEQ ID NO: 2), from human heart cDNA library (Becton, Dickinson and Company). The PCR product was subjected to agarose gel (1%) electrophoresis, a 2.2 kb DNA fragment containing an ASK1 gene was recovered from the gel, and then digested with restriction enzymes, NotI and SalI, and inserted into a plasmid pFASTBAC1 (Invitrogen) to prepare a plasmid pFB-ASK1. The insert was verified by sequencing. Recombinant baculovirus was prepared according to the procedure of the Bac-to-Bac baculovirus expression system (Invitrogen).
Sf-21 cells were seeded to achieve 1×10^6 cells/mL in 100 mL of Sf-900 II SFM medium (Invitrogen) which contains 10% fetal calf serum and then cultured at 27° C. for 24 hrs. To express ASK1 in cells, 0.15 mL of the recombinant baculovirus virus stock was added to cells, and the then cultured for 60 hrs. The cells were separated from the culture solution by centrifugation at 3000 rpm for 10 min and washed once with PBS. The cells were suspended in 10 mL of lysis buffer (25 mM HEPES (pH 7.5), 1% Triton X, 130 mM NaCl, 1 mM EDTA, 1 mM DTT, 25 mM β-glycerophosphate, Protease inhibitor complete (Roche), 1 mM sodium orthovanadate) and ruptured by four times of treatment with a homogenizer (POLYTRON) at 20000 rpm for 30 seconds. Active ASK1 protein was purified from a supernatant obtained by centrifugal separation at 40000 rpm for 45 min using anti-FLAG M2 Affinity Gel (Sigma).
The test compounds (2.5 μl) dissolved in DMSO were added to wells containing 37.5 μl of the reaction solution (25 mM HEPES (pH 7.5), 10 mM magnesium acetate, 1 mM DTT) including 30 ng of active ASK1 protein and 1 μg of myelin basic protein (Wako), and incubated at room temperature for 5 min. To start the reaction, 10 μL of ATP solution (2.5 μM ATP, 0.1 μCi [γ-^32P]ATP) was added to wells. After incubating at room temperature for 30 min, the reaction was terminated by adding 50 μl of 20% TCA solution. The reaction solution was incubated at 4° C. for 30 min and an acid-insoluble fraction was transferred onto a GF/C filter (Packard) with Cell Harvester (Packard), and washed with 250 mM phosphoric acid. After drying at 45° C. for 60 min., 40 μL of Microscint 0 (Packard) was added and the radioactivity was measured with TopCount (Packard). The concentrations (IC50 value) of the test compounds necessary for 50% inhibition of kinase activity were calculated by PRISM 3.0 (Graphpad Software).
The enzyme activities of selected compounds of the present invention against ASK1 were determined using the assay disclosed in Example A and B. The resulted pIC50 values are reported in Table 1.

SMILES	IC50
Cc1cc2nc(NC(=O)[C@@H]3C[C@H]3c3ccc(F)cc3)cc(-c3ccccc3)n2n1 (racemic) [Compound 359, trans-2-(4-Fluorophenyl)-N-(2-methyl-7-phenylpyrazolo[1,5-a]pyrimidin-5-yl)cyclopropanecarboxamide]	< 100 nM
CC(=O)NC1CCN(c2cc(NC(=O)[C@@H]3C[C@H]3c3ccc(F)cc3)nc3cc(C)nn23)CC1 (racemic) [Compound 361, N-(7-(4-acetamidopiperidin-1-yl)-2-methylpyrazolo[1,5-a]pyrimidin-5-yl)-2-(4-fluorophenyl)cyclopropanecarboxamide]	< 100 nM
Cc1cc2nc(NC(=O)[C@@H]3C[C@H]3c3ccc(F)cc3)cc(N3CCC(NC(N)=O)CC3)n2n1 (racemic) [Compound 362, 2-(4-fluorophenyl)-N-(2-methyl-7-(4-ureidopiperidin-1-yl)pyrazolo[1,5-a]pyrimidin-5-yl)cyclopropanecarboxamide]	< 100 nM
Cc1cc2nc(NC(=O)c3ccc(C(C)(C)C)cc3)cc(-c3cccc(CO)c3)n2n1 [Compound 1, 4-tert-butyl-N-(7-(3-(hydroxymethyl)phenyl)-2-methylpyrazolo[1,5-a]pyrimidin-5-yl)benzamide]	< 100 nM
CC(C)(C)c1ccc(C(=O)Nc2cc(-c3cccs3)n3nccc3n2)cc1 [Compound 2, 4-tert-butyl-N-(7-(thiophen-2-yl)pyrazolo[1,5-a]pyrimidin-5-yl)benzamide]	< 100 nM
Cc1cc2nc(NC(=O)c3ccc(C(C)(C)C)cc3)cc(-c3cccc(CCCO)c3)n2n1 [Compound 3, 4-(tert-butyl)-N-(7-(3-(3-hydroxypropyl)phenyl)-2-methylpyrazolo[1,5-a]pyrimidin-5-yl)benzamide]	< 100 nM
Cc1cc2nc(NC(=O)c3ccc(C(C)(C)C)cc3)cc(-c3ccc(F)c(CO)c3)n2n1 [Compound 4, 4-tert-butyl-N-(7-(4-fluoro-3-(hydroxymethyl)phenyl)-2-methylpyrazolo[1,5-a]pyrimidin-5-yl)benzamide]	< 100 nM
CC(C)(C)c1ccc(C(=O)Nc2cc(-c3cccc(CO)c3)n3nccc3n2)cc1 [Compound 5, 4-tert-butyl-N-(7-(3-(hydroxymethyl)phenyl)pyrazolo[1,5-a]pyrimidin-5-yl)benzamide]	< 100 nM
CC(C)(O)c1ccc(C(=O)Nc2cc(-c3cccc(CO)c3)n3nccc3n2)cc1 [Compound 6, N-(7-(3-(hydroxymethyl)phenyl)pyrazolo[1,5-a]pyrimidin-5-yl)-4-(2-hydroxypropan-2-yl)benzamide]	< 100 nM
CC(O)(c1ccc(C(=O)Nc2cc(-c3cccc(CO)c3)n3nccc3n2)cc1)C(F)(F)F (centres unmarked) [Compound 7, N-(7-(3-(hydroxymethyl)phenyl)pyrazolo[1,5-a]pyrimidin-5-yl)-4-(1,1,1-trifluoro-2-hydroxypropan-2-yl)benzamide]	< 100 nM
CC(C)(C)c1ccc(C(=O)Nc2cc(-c3ccc(S(C)(=O)=O)cc3)n3nccc3n2)cc1 [Compound 8, 4-tert-butyl-N-(7-(4-(methylsulfonyl)phenyl)pyrazolo[1,5-a]pyrimidin-5-yl)benzamide]	> 1000 nM
COc1ccc(-c2cc(NC(=O)c3ccc(C(C)(C)C)cc3)nc3ccnn23)cc1 [Compound 9, 4-tert-Butyl-N-(7-(4-methoxyphenyl)pyrazolo[1,5-a]pyrimidin-5-yl)benzamide]	< 100 nM
CC(C)(C)c1ccc(C(=O)Nc2cc(-c3cccc(CCO)c3)n3nccc3n2)cc1 [Compound 10, 4-tert-butyl-N-(7-(3-(2-hydroxyethyl)phenyl)pyrazolo[1,5-a]pyrimidin-5-yl)benzamide]	< 100 nM
CC(C)(C)c1ccc(C(=O)Nc2cc(-c3cccc(CCCO)c3)n3nccc3n2)cc1 [Compound 11, 4-tert-Butyl-N-(7-(3-(3-hydroxypropyl)phenyl)pyrazolo[1,5-a]pyrimidin-5-yl)benzamide]	< 100 nM
CC(=O)c1cccc(-c2cc(NC(=O)c3ccc(C(C)(C)C)cc3)nc3ccnn23)c1 [Compound 12, N-(7-(3-Acetylphenyl)pyrazolo[1,5-a]pyrimidin-5-yl)-4-tert-butylbenzamide]	> 1000 nM
COc1ccc(-c2cc(NC(=O)c3ccc(C(C)(C)C)cc3)nc3ccnn23)cn1 [Compound 13, 4-tert-Butyl-N-(7-(6-methoxypyridin-3-yl)pyrazolo[1,5-a]pyrimidin-5-yl)benzamide]	> 1000 nM
CC(=O)Nc1ccc(-c2cc(NC(=O)c3ccc(C(C)(C)C)cc3)nc3ccnn23)cn1 [Compound 14, N-(7-(6-Acetamidopyridin-3-yl)pyrazolo[1,5-a]pyrimidin-5-yl)-4-tert-butylbenzamide]	100 to 1000 nM
COc1cccc(-c2cc(NC(=O)c3ccc(C(C)(C)C)cc3)nc3ccnn23)c1 [Compound 15, 4-tert-Butyl-N-(7-(3-methoxyphenyl)pyrazolo[1,5-a]pyrimidin-5-yl)benzamide]	< 100 nM
CC(C)(O)c1ccc(C(=O)Nc2cc(-c3ccccc3)n3nccc3n2)cc1 [Compound 16, 4-(2-Hydroxypropan-2-yl)-N-(7-phenylpyrazolo[1,5-a]pyrimidin-5-yl)benzamide]	< 100 nM
CC(C)(O)c1ccc(C(=O)Nc2cc(-c3cccc(NS(C)(=O)=O)c3)n3nccc3n2)cc1 [Compound 17, 4-(2-Hydroxypropan-2-yl)-N-(7-(3-(methylsulfonamido)phenyl)pyrazolo[1,5-a]pyrimidin-5-yl)benzamide]	100 to 1000 nM
CC(C)(O)c1ccc(C(=O)Nc2cc(-c3ccoc3)n3nccc3n2)cc1 [Compound 18, N-(7-(Furan-3-yl)pyrazolo[1,5-a]pyrimidin-5-yl)-4-(2-hydroxypropan-2-yl)benzamide]	100 to 1000 nM
COc1ccc(-c2cc(NC(=O)c3ccc(C(C)(C)O)cc3)nc3ccnn23)cc1 [Compound 19, 4-(2-Hydroxypropan-2-yl)-N-(7-(4-methoxyphenyl)pyrazolo[1,5-a]pyrimidin-5-yl)benzamide]	< 100 nM
Cc1ccc(-c2cc(NC(=O)c3ccc(C(C)(C)O)cc3)nc3ccnn23)cc1 [Compound 20, 4-(2-Hydroxypropan-2-yl)-N-(7-p-tolylpyrazolo[1,5-a]pyrimidin-5-yl)benzamide]	< 100 nM
CC(C)(O)c1ccc(C(=O)Nc2cc(-c3cccc(CC#N)c3)n3nccc3n2)cc1 [Compound 21, N-(7-(3-(cyanomethyl)phenyl)pyrazolo[1,5-a]pyrimidin-5-yl)-4-(2-hydroxypropan-2-yl)benzamide]	100 to 1000 nM
CC(C)(O)c1ccc(C(=O)Nc2cc(-c3ccc(C(N)=O)cc3)n3nccc3n2)cc1 [Compound 22, N-(7-(4-carbamoylphenyl)pyrazolo[1,5-a]pyrimidin-5-yl)-4-(2-hydroxypropan-2-yl)benzamide]	100 to 1000 nM
CSc1ccc(-c2cc(NC(=O)c3ccc(C(C)(C)O)cc3)nc3ccnn23)cc1 [Compound 23, 4-(2-hydroxypropan-2-yl)-N-(7-(4-(methylthio)phenyl)pyrazolo[1,5-a]pyrimidin-5-yl)benzamide]	< 100 nM
